system: not given; assay: not given; conditions: not given

For `CCOC(=O)CC1CCN(c2ccc(NC(=O)c3cccc(C)c3-c3ccc(C(F)(F)F)cc3)cn2)CC1` [Compound 14], the melting point was 134 to 137 °C.

system: secretion of ApoB in HepG2 cells; assay: Quantification of the secretion of ApoB; assay type: cell-based; conditions: Homo sapiens, 24 hours of incubation with test compound, apoB immunoprecipitated from medium, read-out: pIC50 values (=−log IC50 value) (converted)
Protocol: HepG2 cells were cultured in 24-well plates in MEM Rega 3 containing 10% fetal calf serum. At 70% confluency, the medium was changed and the test compound or carrier (DMSO, 0.4% final concentration) was added. After 24 hours of incubation, the medium was transferred to Eppendorf tubes and cleared by centrifugation. A sheep antibody directed against either apoB was added to the supernatant and the mixture was kept at 8° C. for 24 hours. Then, rabbit anti-sheep antibody was added and the immune complex was allowed to precipitate for 24 hours at 8° C. The immunoprecipitate was pelleted by centrifugation for 25 minutes at 1320 g and washed twice with a buffer containing 40 mM Mops, 40 mM NaH2PO4, 100 mM NaF, 0.2 mM DTT, 5 mM EDTA, 5 mM EGTA, 1% Triton-X-100, 0.5% sodium deoxycholate (DOC), 0.1% SDS, 0.2 μM leupeptin and 0.2 μM PMSF. Radioactivity in the pellet was quantified by liquid scintillation counting.
Resulting IC50 values are enumerated in Table C.1.

In order of falling IC50:
1. COC(=O)C1CCN(c2ccc(NC(=O)c3ccccc3-c3ccc(C(F)(F)F)cc3)cc2)CC1 [Compound 9]  619 nM
2. CC(C)(C)c1ccc(-c2ccccc2C(=O)Nc2ccc(N3CCC(C(=O)NCc4ccccc4)CC3)cc2)cc1 [Compound 8]  153 nM
3. CCOC(=O)CC1CCN(c2ccc(NC(=O)c3ccccc3-c3ccc(C(F)(F)F)cc3)cn2)CC1 [Compound 13]  89.5 nM
4. CCNC(=O)CC1CCN(c2ccc(NC(=O)c3ccccc3-c3ccc(C(F)(F)F)cc3)cc2)CC1 [Compound 5]  38.4 nM
5. CCOC(=O)CC1CCN(c2ccc(NC(=O)c3ccc(C)cc3-c3ccc(C(F)(F)F)cc3)cc2)CC1 [Compound 12]  31.4 nM
6. CCOC(=O)CC1CCN(c2ccc(NC(=O)c3ccc(C)cc3-c3ccc(C(F)(F)F)cc3)cn2)CC1 [Compound 15]  25.6 nM
7. O=C(Nc1ccc(N2CCC(C(=O)NCc3ccccc3)CC2)cc1)c1ccccc1-c1ccc(C(F)(F)F)cc1 [Compound 1]  25.4 nM
8. COC(=O)CC1CCN(c2ccc(NC(=O)c3ccccc3-c3ccc(C(F)(F)F)cc3)cc2)CC1 [Compound 11]  12.1 nM
9. CCNC(=O)C1CCN(c2ccc(NC(=O)c3ccccc3-c3ccc(C(C)(C)C)cc3)cc2)CC1 [Compound 6]  11.6 nM
10. CCOC(=O)CC1CCN(c2ccc(NC(=O)c3cccc(C)c3-c3ccc(C(F)(F)F)cc3)cc2)CC1 [Compound 10]  11.3 nM
11. CCOC(=O)CC1CCN(c2ccc(NC(=O)c3cccc(C)c3-c3ccc(C(F)(F)F)cc3)cn2)CC1 [Compound 14]  9.29 nM
12. CCNC(=O)C1CCN(c2ccc(NC(=O)c3ccccc3-c3ccc(C(F)(F)F)cc3)cc2)CC1 [Compound 4]  8.02 nM
13. CC(C)(C)c1ccc(-c2ccccc2C(=O)Nc2ccc(N3CCC(CC(=O)NCc4ccccc4)CC3)cc2)cc1 [Compound 2]  6.04 nM
14. O=C(CC1CCN(c2ccc(NC(=O)c3ccccc3-c3ccc(C(F)(F)F)cc3)cc2)CC1)NCc1ccccc1 [Compound 3]  3.56 nM
15. CCNC(=O)CC1CCN(c2ccc(NC(=O)c3ccccc3-c3ccc(C(C)(C)C)cc3)cc2)CC1 [Compound 7]  2.39 nM

— patent publication US8258304B2, “N-aryl piperidine substituted biphenylcarboxamides” (Janssen Pharmaceutica N.V., priority 2002, dated 2012)
